Assay results as given in patent US20260364124A1, “ANTI-C. DIFFICILE SMALL MOLECULE METABOLITES FROM DIET AND GUT MICROBIOME” (The Children's Medical Center Corporation, priority 2023, published 2026).

System: B. uniformis
Test: In vitro aglycone liberation by wildtype B. uniformis (LC-MS)
Design: species or system Bacteroides uniformis ATCC 8492
Conditions: role: substrate; B. uniformis cultivated with polydatin (FIG. 2)
Description: Comparative LC-MS EICs (Extracted Ion Chromatogram) of methanol-water extracts of bacterial cultures supplemented with each polyphenolic glycoside after eight hours are provided. The trace labeled “A” corresponds to the EIC of each glycoside, and the trace labeled “B” corresponds to the EIC of each aglycone. The portion of the trace “B” peak overlapping the trace “A” peak corresponds to the aglycone detected from fragmentation of the glycoside at the ionization source and is a technical artifact.
FIGS. 5A and 5B show microbiome-mediated polyphenol aglycone liberation. […] Step 2: Spent media was filter-sterilized. Step 3: C. difficile was grown in spent media from either vehicle or polydatin (top).
In vitro aglycone liberation: All B. uniformis strains were grown on brain-heart-infusion supplemented with hemin (50 mg/L) and vitamin K1 (0.25 mg/L) (BHIS) agar plates or in basal media (BSG; proteose peptone (20 g/L), yeast (5 g/L), NaCl (5 g/L), glucose (5 g/L), potassium phosphate dibasic (5 g/L), cysteine (0.5 g/L), hemin (50 mg/L), and vitamin K1 (0.25 mg/L). All isolates were recovered on and grown in pre-reduced media in a Coy anaerobic chamber (Coy Labs).
To assess the capacity of Bacteroides to liberate aglycones from their parent polyphenolic glycosides, B. uniformis ATCC 8492 WT and AgshD were recovered on a BHIS agar plate and incubated anaerobically at 37 °C for 48 h. A starter culture (1 mL) of BSG was inoculated with each isolate and grown for 15 h. This starter culture was then used to inoculate a BSG sub-culture (1 mL) at a final dilution of 1:10. […]
For polyphenolic glycoside and aglycone-containing samples, samples were dried under nitrogen flow and resuspended in 50 μl of methanol 50% in water. […] Samples were quantified on a QEplus mass spectrometer coupled to an Ultimate 3000 LC (Thermo fisher). […] Quantification was performed using Tracefinder (Thermo fisher), using the ratio of the area under the peak for each compound and of the internal standard, using the accurate mass of the [M−H]^− ions.

OC[C@H]1O[C@@H](Oc2cc(O)cc(/C=C/c3ccc(O)cc3)c2)[C@H](O)[C@@H](O)[C@@H]1O [polydatin]
liberation of resveratrol from polydatin: liberated resveratrol
